“And” between values parts separate entries of the source, which are not always exact repeats. Equal values may be shown once. Marks after values point to notes of the source that are not given here. Square brackets hold non-standard residues; d marks the D form. Peptide text beside a SMILES is read from it. dPhe(4-Cl) = N[C@H](Cc1ccc(Cl)cc1)C(=O)O; d2Nal = N[C@H](Cc1ccc2ccccc2c1)C(=O)O; dCit = NC(=O)NCCC[C@@H](N)C(=O)O; d3Pal = N[C@H](Cc1cccnc1)C(=O)O
System: alpacas
Assay: Alpaca Cetrorelix known stage study, two injections (Example 2)
Type: in vivo
Settings: for Wave emergence after the first Cetrorelix injection, average: 2 x 1.5 mg i/m, D5 and D10 groups combined
Source text: Methods: The specific objective of this experiment was to identify the pattern of growth for the dominant follicle in alpacas following treatment with a GnRH antagonist during two contrasting stages of the follicular wave. Based on data from natural spontaneous waves in alpacas, the dominant follicle is expected to be in early- to mid-growing phase (6 to 7 mm in diameter) on Day 5 and in mid-static phase (9 to 10 mm) on Day 10, so the treatments were planned to begin on these days.
The experimental design is illustrated FIG. 3. Transrectal ovarian ultrasonography was performed using an Esoate My Lab 5 ultrasound machine and a 7.5 linear array transducer attached to a custom-build rigid PVC pipe handle. The pipe was slightly curved at the transducer end to facilitate manipulation of the transducer. The transducer and the plastic handle were lubricated using methyl cellulose ultrasound gel and inserted slowly into the rectum after manual removal of the faeces. Reproductive track and ovaries were located and 10 to 20 second video clips of left and right ovary were recorded. Sketches of ovaries were drawn daily at the time of imaging to record location, size and number of follicles >2 mm in diameter as well as the size and location of the corpus luteum (if present). Ultrasound examinations were performed daily. The experimental data recording began when a spontaneous emergence of a new follicular wave detected in an animal (defined as Extant follicular wave). The day of wave emergence was designated as Day 0 and was defined retrospectively as the first detection of the dominant follicle at 4 or 5 mm size with concomitant increase in number of 3-4 mm follicles.
The first group of alpacas (Control group) were given no treatment, their ovaries were examined daily and blood samples were obtained daily from Day 4 to 12 to compare hormonal data from analogous days after Cetrorelix treatment. The second group of alpacas (D5 group) were given the first intramuscular injection of 1.5 mg (3 mL of 0.5 mg per mL solution) Cetrorelix acetate on Day 5 and a second injection of 3 mL on Day 6 (i.e., two i/m injections of 1.5 mg Cetrorelix at 24 hour interval for a total dose of 3 mg). The Cetrorelix dose administered was approximately equal to 20 ug/Kg body weight per day (considering average body weight of alpaca=75 kg) and based on the previous studies in llama and cattle (Silva et al, 2011, Ulker et al 2001). Alpacas in the third group (D10 group) were given the first intramuscular injection of 1.5 mg Cetrorelix acetate on Day 10 and a second injection of 1.5 mg on Day 11.
Cetrorelix treatments were given during the extant follicular wave. Changes in the size of the dominant follicle, largest subordinate follicle, and the number of ≥3 mm follicles were recorded daily from spontaneous emergence of extant follicular wave to Day 6 of next (post-treatment) follicular wave emergence. The inter-wave interval was determined based on duration between emergence of successive follicular waves.
Blood samples (5 to 8 mL) were collected in heparinized tubes (BD Vacutainer, BD Franklin Lakes, NJ, USA) via jugular venipuncture. Blood samples were kept on ice packs till centrifugation at 200 rpm (within 1 hr of collection) to obtain plasma samples that were immediately frozen at −20° C. until measurement of plasma LH. Plasma samples were obtained on Day 4 to 7 in Group 2 (that is, 1 day before to 1 day after Cetrorelix treatment) and on Day 9 to 12 in Group 3. For direct comparison, plasma samples were obtained from Day 4 to 12 in control group.

[1] = 2 x 1.5 mg i/m starting Day 5 (D 5)
[2] = 2 x 1.5 mg i/m starting Day 10 (D 10)
[3] = 2 x 1.5 mg i/m starting Day 10 (D 10), n = 6

CC(=O)N[C@H](Cc1ccc2ccccc2c1)C(=O)N[C@H](Cc1ccc(Cl)cc1)C(=O)N[C@H](Cc1cccnc1)C(=O)N[C@@H](CO)C(=O)N[C@@H](Cc1ccc(O)cc1)C(=O)N[C@H](CCCNC(N)=O)C(=O)N[C@@H](CC(C)C)C(=O)N[C@@H](CCCNC(=N)N)C(=O)N1CCC[C@H]1C(=O)N[C@H](C)C(N)=O [Cetrorelix, N-acetyl-3-(2-naphthyl)-D-alanyl-4-chloro-D-phenylalanyl-3-(3-pyridyl)-D-alanyl-L-seryl-L-tyrosyl-D-citrullyl-L-leucyl-L-arginyl-L-prolyl-D-alaninamide] (Ac-[d2Nal][dPhe(4-Cl)][d3Pal]SY[dCit]LRP[dA]-NH2)
Extant Wave: Total Number of Follicles on Day of Emergence (1.5 mg Cetrorelix acetate i/m twice at 24 hr interval starting Day 5 (D 5)): 10.71 ± 0.97
Extant Wave: Total Number of Follicles on Day of Emergence (1.5 mg Cetrorelix acetate i/m twice at 24 hr interval starting Day 10 (D 10)): 9.14 ± 1.39
Day of largest subordinate follicle maximum diameter [1]: 1.86 ± 1.01 days
Degree of Synchrony: Days from treatment to next wave emergence [1]: 7.71 ± 0.36 days and 7.7 ± 0.36 days
Dominant Follicle Diameter on Day 5 (mm) [1]: 6.64 ± 0.43 mm
Dominant Follicle Diameter on Day 10 (mm) [1]: 5.50 ± 0.87^b mm
Dominant Follicle Diameter on Day of Cetrorelix Treatment (mm) [1]: 6.64 ± 0.43^a mm
Dominant Follicle End of Growth (days) [1]: 4.86 ± 0.40^b days
Interwave Interval [1]: 12.7 ± 0.36 days and 12.7 days
Interwave Interval (days) [1]: 12.71 ± 0.36^b days
Largest Subordinate Follicle Diameter on Day 5 (mm) [1]: 3.21 ± 0.21 mm
Largest Subordinate Follicle Diameter on Day 10 (mm) [1]: 2.71 ± 0.81 mm
Largest Subordinate Follicle Diameter on Day of Cetrorelix Treatment (mm) [1]: 3.21 ± 0.21 mm
Largest Subordinate Follicle Maximum Diameter (mm) [1]: 4.57 ± 0.40 mm
Next Wave: Total Number of Follicles on Day of Emergence [1]: 13.14 ± 1.47
Day of dominant follicle maximum diameter [2]: 10.3±0.68 days and 10.29 ± 0.68^a days
Day of largest subordinate follicle maximum diameter [2]: 6.00 ± 1.36 days
Dominant Follicle Diameter on Day 5 (mm) [2]: 9.71 ± 1.77 mm
Dominant Follicle Diameter on Day 10 (mm) [2]: 10.36 ± 0.85^a mm
Dominant Follicle Diameter on Day of Cetrorelix Treatment (mm) [2]: 10.36 ± 0.85^b mm
Dominant Follicle End of Growth (days) [2]: 8.00 ± 0.38^a days
Dominant Follicle Length of Static Phase [2]: 4.9 ± 0.40 days
Dominant Follicle Length of Static Phase (days) [2]: 4.86 ± 0.40^ab days
Dominant Follicle Maximum Diameter (mm) [2]: 10.9±0.70 mm and 10.93 ± 0.70^a mm
Dominant Follicle Onset of Regression [2]: 12.9 ± 0.34 days
Dominant Follicle Onset of Regression (days) [2]: 12.86 ± 0.34^a days
Largest Subordinate Follicle Diameter on Day 5 (mm) [2]: 4.21 ± 0.76 mm
Largest Subordinate Follicle Diameter on Day 10 (mm) [2]: 4.00 ± 0.97 mm
Largest Subordinate Follicle Diameter on Day of Cetrorelix Treatment (mm) [2]: 4.00 ± 0.97 mm
Largest Subordinate Follicle Maximum Diameter (mm) [2]: 5.79 ± 1.02 mm
Interwave Interval [3]: 17.71 ± 0.52 days and 18.17 days
Interwave Interval (days) [3]: 17.71 ± 0.52^c# days
Next Wave: Total Number of Follicles on Day of Emergence [3]: 12.14 ± 1.08
Wave emergence after the first Cetrorelix injection, average: 7.92 ± 0.24 days
Wave emergence after the first Cetrorelix injection, average (listed as Cetrorelix acetate): about 7.92±0.24 days
Interval from first treatment to next wave emergence, range (D5 group): 7 to 9 days
Interval from first treatment to next wave emergence, range (D10 group): 7 to 9 days

From patent publication US20260034192A1 (University of Saskatchewan, priority 2022, published 2026)
